Assay results taken from ChEMBL document CHEMBL3832047, “DailyMed|setid=077bf6ff-afb8-4cb7-9faa-fbb6fd9f037f | YAZ - drospirenone and ethinyl estradiol|Physicians Total Care, Inc”.

Tests used:
[1] = (§1) Evaluation pharmacokinetic parameters for Drosporine following multiple co-administration of Drosporine tablets and 0.02 mg ethinyl estradiol to 23 healthy females.; assay type: ADME, organism-based; parameters: dose 3 mg, route oral; conditions: human, in vivo, dosed compound id 30, dosed compound name DROSPIRENONE, gender female, regimen every 24h, study dosing duration 21 days, tissue Serum
[2] = test system: Homo sapiens; assay: as §1; assay type: ADME, organism-based; parameters: dose 3 mg, route oral; conditions: in vivo, po, dosed compound id 30, dosed compound name DROSPIRENONE, gender female, regimen every 24h, study dosing duration 21 days, tissue Serum

SMILES: C[C@]12CCC(=O)C=C1[C@@H]1C[C@@H]1[C@H]1[C@@H]3[C@@H]4C[C@@H]4[C@@]4(CCC(=O)O4)[C@@]3(C)CC[C@@H]12 [DROSPIRENONE]
- Cmax ([1]; po, sampling time1 1 day): 38.4 ng/mL
- Tmax ([1]; dose 3 mg, route oral, sampling time1 1 day): 1 to 2 h
- half-life ([1]; dose 3 mg, route oral, sampling time1 21 day): 30.8 h
- AUC(0-24) ([2]; sampling time1 1 day): 268 ng·h/mL
- AUC(0-24) ([2]; sampling time1 21 day): 763 ng·h/mL
- Cmax ([2]; sampling time1 21 day): 70.3 ng/mL
